Results published in patent publication US4281121A, “1,3,4-Thiadiazole-2-carboxylic acid derivatives, process for making the same and fungicidal and nematocidal compositions containing same” (Schering Aktiengesellschaft, priority 1978, dated 1981).
Like-named read-outs stand apart in the source and are kept apart here.

What was measured:
Venturia inaequalis = test: Prophylactic leaf treatment of apples in open field test against Venturia inaequalis; format: in vivo; conditions: 3 weeks
Botrytis cinerea = test: Prophylactic leaf treatment of tomato plants against Botrytis cinerea; format: in vivo; conditions: concentration of 0.025 of the active agent (unit not given)
Helminthosporium gram = conditions: about 5 weeks
Experimental: Treatment of barley seeds infested with Helminthosporium gram
After emergence, the plants were subjected to illumination for 12 hours per day. After about 5 weeks the infested plants were counted and the total number of plants for each test were also counted. The active agents tested were used as pulverulent compositions.

Tilletia caries = test: Treatment of oat seeds infested with Tilletia caries (spore germination); format: in vivo
Plasmopara viticola = test: Prophylactic leaf treatment of grapevines in the hothouse against Plasmopara viticola; format: in vivo
Procedure, shortened: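 Grapevines (5–8 leaves) sprayed to runoff with compound as 20% spray powder, then after drying inoculated on leaf undersides with sporangial suspension (~20,000/ml). Incubated at 22–24 °C, saturated humidity, 3–4 days normal humidity (30–70%), then one day saturated; activity from mean % infested leaf area per treatment.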

Piricularia oryzae = format: in vivo; conditions: 5 days
Fusarium avenaceum = test: Threshold concentration test in case of Fusarium avenaceum (infested soil, garden peas); format: in vivo; conditions: for number of sound peas: 20 grains per dish, 18 days at 20-24° C.; for root evaluation (1-4): 18 days
Procedure, shortened: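 Soil heavily infested with Fusarium avenaceum was mixed uniformly with a 20% powder formulation of active agent, then sown immediately with 20 garden pea seeds ('Wunder von Kelvedon') per dish. After 18 days in a greenhouse at 20° to 24° C., sound plants were counted and roots scored on a 1–4 scale.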

[1] = system: Helminthosporium gramineum; test: Seed treatment in open field tests for infestation by Helminthosporium gramineum (barley); format: in vivo
Experimental: Seed treatment in open field tests for infestation by Helminthosporium gramineum
The active agents were used in the form of pulverulent compositions. After about 8 months in case of winter barley and after about 3 months in case of summer barley the infested plants were counted and the activity was calculated by the formula [formula]

Pythium ultimum = test: Threshold concentration test for use of the compounds against Pythium ultimum (infested soil, garden peas); format: in vivo; set-up: key to root evaluation (1-4): 4: white roots without fungous necrosis; 3: white roots, minor fungous necrosis; 2: brown roots, already more pronounced fungous necrosis; 1: heavy fungous necrosis, roots rotted; conditions: for root evaluation (1-4): 3 weeks; for number of sound peas: 20 grains per dish, 3 weeks at 20-24° C.
Procedure, shortened: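 Pulverulent agents at 20% concentration mixed evenly into soil heavily infested with Pythium ultimum, then garden peas ('Wunder von Kelvedon', 20 per dish) sown at once. After three weeks at 20–24 °C in a hothouse, sound peas counted and roots scored on a 1–4 scale.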

[2] = concentration of active agent 0.005 (in gram)
[3] = concentration of active agent 0.025 (in gram)
[4] = concentration of active agent 0.025 (unit not given)
[5] = concentration of active agent 0.1 (percentages)
[6] = concentration of active agent 0.005 (unit not given)
[7] = summer barley, 50 g active agent/100 kg barley, about 3 months

## N#CC1=C(C#N)C(=O)c2cc3ccccc3cc2C1=O [2,3-dinitrilo-1,4-anthraquinone, reference compound]
Venturia inaequalis; [2]
  % activity: 86%
Venturia inaequalis; [3]
  % activity: 94%

## CCS(=O)(=O)c1nnc(C(=O)NC2CCCCCCC2)s1 [5-ethylsulfonyl-1,3,4-thiadiazole-2-carboxylic acid-cyclooctylamide]
Botrytis cinerea
  % activity: 93%
Helminthosporium gram; 50 g active agent per 100 kg
  % activity: 98%
Tilletia caries; 10 g active agent per 100 kg
  % activity: 100%
Tilletia caries; 20 g active agent per 100 kg
  % activity: 100%
Tilletia caries; 50 g active agent per 100 kg
  % activity: 100%

## CCCCCCCCNC(=O)c1nnc(S(=O)(=O)CC)s1 [5-ethylsulfonyl-1,3,4-thiadiazole-2-carboxylic acid-octylamide]
Botrytis cinerea
  % activity: 87%
Plasmopara viticola; [4]
  % activity: 90%
Tilletia caries; 10 g active agent per 100 kg
  % activity: 91%
Tilletia caries; 20 g active agent per 100 kg
  % activity: 93%
Tilletia caries; 50 g active agent per 100 kg
  % activity: 98%

## CC(C)CS(=O)(=O)c1nnc(C#N)s1 [5-isobutylsulfonyl-1,3,4-thiadiazole-2-carbonitrile]
Piricularia oryzae; [5]
  % activity: 100%
Fusarium avenaceum; 25 mg/l soil
  number of sound peas: 19
  root evaluation (1-4): 4
Fusarium avenaceum; 50 mg/l soil
  number of sound peas: 20
  root evaluation (1-4): 4
Fusarium avenaceum; 100 mg/l soil
  number of sound peas: 19
  root evaluation (1-4): 4
Plasmopara viticola; concentration of active agent 0.001 (unit not given)
  % activity: 79%
Plasmopara viticola; [6]
  % activity: 87%
Plasmopara viticola; [4]
  % activity: 99%
Tilletia caries; 20 g active agent per 100 kg
  % activity: 93%
Tilletia caries; 50 g active agent per 100 kg
  % activity: 100%

## CCCCNC(=O)c1nnc([S+](C)[O-])s1 (stereo not shown) [5-methylsulfinyl-1,3,4-thiadiazole-2-carboxylic acid-butylamide]
[1]; [7]
  % activity: 100%
Helminthosporium gram; 10 g active agent per 100 kg
  % activity: 67%
Helminthosporium gram; 20 g active agent per 100 kg
  % activity: 97%
Helminthosporium gram; 50 g active agent per 100 kg
  % activity: 100%
Venturia inaequalis; [2]
  % activity: 86%
Venturia inaequalis; [3]
  % activity: 99%
Pythium ultimum; 20 mg/l soil
  root evaluation (1-4): 2
  number of sound peas: 12
Pythium ultimum; 40 mg/l soil
  root evaluation (1-4): 4
  number of sound peas: 15
Pythium ultimum; 80 mg/l soil
  root evaluation (1-4): 4
  number of sound peas: 17
Plasmopara viticola; [4]
  % activity: 93%
Tilletia caries; 10 g active agent per 100 kg
  % activity: 99%
Tilletia caries; 20 g active agent per 100 kg
  % activity: 99.8%
Tilletia caries; 50 g active agent per 100 kg
  % activity: 100%

## CC(C)NC(=O)c1nnc([S+](C)[O-])s1 (stereo not shown) [5-methylsulfinyl-1,3,4-thiadiazole-2-carboxylic acid-isopropylamide]
Piricularia oryzae; [5]
  % activity: 90%
Helminthosporium gram; 20 g active agent per 100 kg
  % activity: 96%
Helminthosporium gram; 50 g active agent per 100 kg
  % activity: 100%
Venturia inaequalis; [2]
  % activity: 71%
Venturia inaequalis; [3]
  % activity: 90%
Pythium ultimum; 20 mg/l soil
  root evaluation (1-4): 4
  number of sound peas: 19
Pythium ultimum; 40 mg/l soil
  root evaluation (1-4): 4
  number of sound peas: 19
Pythium ultimum; 80 mg/l soil
  root evaluation (1-4): 4
  number of sound peas: 20
Plasmopara viticola; [4]
  % activity: 90%
Tilletia caries; 20 g active agent per 100 kg
  % activity: 100%
Tilletia caries; 50 g active agent per 100 kg
  % activity: 100%

## CCCNC(=O)c1nnc([S+](C)[O-])s1 (stereo not shown) [5-methylsulfinyl-1,3,4-thiadiazole-2-carboxylic acid-propylamide]
[1]; [7]
  % activity: 97%
Helminthosporium gram; 10 g active agent per 100 kg
  % activity: 75%
Helminthosporium gram; 20 g active agent per 100 kg
  % activity: 98%
Helminthosporium gram; 50 g active agent per 100 kg
  % activity: 100%
Venturia inaequalis; [2]
  % activity: 62%
Venturia inaequalis; [3]
  % activity: 99.7%
Pythium ultimum; 20 mg/l soil
  root evaluation (1-4): 4
  number of sound peas: 14
Pythium ultimum; 40 mg/l soil
  root evaluation (1-4): 4
  number of sound peas: 15
Pythium ultimum; 80 mg/l soil
  root evaluation (1-4): 4
  number of sound peas: 15
Plasmopara viticola; [6]
  % activity: 75%
Plasmopara viticola; [4]
  % activity: 99%
Tilletia caries; 10 g active agent per 100 kg
  % activity: 99%
Tilletia caries; 20 g active agent per 100 kg
  % activity: 100%
Tilletia caries; 50 g active agent per 100 kg
  % activity: 100%

## CS(=O)(=O)c1nnc(C(=O)NC2CC2)s1 [5-methylsulfonyl-1,3,4-thiadiazole-2-carboxylic acid-cyclopropylamide]
Botrytis cinerea
  % activity: 75%
Pythium ultimum; 20 mg/l soil
  root evaluation (1-4): 1
  number of sound peas: 13
Pythium ultimum; 40 mg/l soil
  root evaluation (1-4): 4
  number of sound peas: 20
Pythium ultimum; 80 mg/l soil
  root evaluation (1-4): 4
  number of sound peas: 20
Tilletia caries; 20 g active agent per 100 kg
  % activity: 98%
Tilletia caries; 50 g active agent per 100 kg
  % activity: 100%

## CN(C)C(=O)c1nnc(S(C)(=O)=O)s1 [5-methylsulfonyl-1,3,4-thiadiazole-2-carboxylic acid-dimethylamide]
[1]; winter barley, 50 g active agent/100 kg barley, about 8 months
  % activity: 98%
[1]; winter barley, 100 g active agent/100 kg barley, about 8 months
  % activity: 100%
Piricularia oryzae; concentration of active agent 0.02 (percentages)
  % activity: 91%
Piricularia oryzae; [5]
  % activity: 98%
Helminthosporium gram; 20 g active agent per 100 kg
  % activity: 87%
Helminthosporium gram; 50 g active agent per 100 kg
  % activity: 98%
Pythium ultimum; 20 mg/l soil
  root evaluation (1-4): 4
  number of sound peas: 18
Pythium ultimum; 40 mg/l soil
  root evaluation (1-4): 4
  number of sound peas: 20
Pythium ultimum; 80 mg/l soil
  root evaluation (1-4): 4
  number of sound peas: 18

## CCNC(=O)c1nnc(S(C)(=O)=O)s1 [5-methylsulfonyl-1,3,4-thiadiazole-2-carboxylic acid-ethylamide]
[1]; [7]
  % activity: 100%
Piricularia oryzae; [5]
  % activity: 90%
Helminthosporium gram; 50 g active agent per 100 kg
  % activity: 93%
Venturia inaequalis; [2]
  % activity: 81%
Venturia inaequalis; [3]
  % activity: 97%
Pythium ultimum; 20 mg/l soil
  root evaluation (1-4): 4
  number of sound peas: 15
Pythium ultimum; 40 mg/l soil
  root evaluation (1-4): 4
  number of sound peas: 15
Pythium ultimum; 80 mg/l soil
  root evaluation (1-4): 4
  number of sound peas: 15
Plasmopara viticola; [6]
  % activity: 81%
Plasmopara viticola; [4]
  % activity: 97%
Tilletia caries; 10 g active agent per 100 kg
  % activity: 99.2%
Tilletia caries; 20 g active agent per 100 kg
  % activity: 99.2%
Tilletia caries; 50 g active agent per 100 kg
  % activity: 98%

## CC(C)NC(=O)c1nnc(S(C)(=O)=O)s1 [5-methylsulfonyl-1,3,4-thiadiazole-2-carboxylic acid-isopropylamide]
[1]; [7]
  % activity: 100%
Piricularia oryzae; [5]
  % activity: 90%
Helminthosporium gram; 50 g active agent per 100 kg
  % activity: 90%
Venturia inaequalis; [2]
  % activity: 85%
Venturia inaequalis; [3]
  % activity: 100%
Pythium ultimum; 20 mg/l soil
  root evaluation (1-4): 4
  number of sound peas: 15
Pythium ultimum; 40 mg/l soil
  root evaluation (1-4): 4
  number of sound peas: 18
Pythium ultimum; 80 mg/l soil
  root evaluation (1-4): 4
  number of sound peas: 15
Plasmopara viticola; [6]
  % activity: 76%
Plasmopara viticola; [4]
  % activity: 96%
Tilletia caries; 10 g active agent per 100 kg
  % activity: 100%
Tilletia caries; 20 g active agent per 100 kg
  % activity: 100%
Tilletia caries; 50 g active agent per 100 kg
  % activity: 100%

## CCCCCS(=O)(=O)c1nnc(C(N)=O)s1 [5-pentylsulfonyl-1,3,4-thiadiazole-2-carboxamide]
Botrytis cinerea
  % activity: 87%
Fusarium avenaceum; 25 mg/l soil
  number of sound peas: 9
  root evaluation (1-4): 2
Fusarium avenaceum; 50 mg/l soil
  number of sound peas: 16
  root evaluation (1-4): 3
Fusarium avenaceum; 100 mg/l soil
  number of sound peas: 18
  root evaluation (1-4): 4
Tilletia caries; 50 g active agent per 100 kg
  % activity: 80%

## CCC[S+]([O-])c1nnc(C(=O)N(C)C)s1 (stereo not shown) [5-propylsulfinyl-1,3,4-thiadiazole-2-carboxylic acid-dimethylamide]
Botrytis cinerea
  % activity: 80%
Helminthosporium gram; 50 g active agent per 100 kg
  % activity: 100%
Pythium ultimum; 20 mg/l soil
  root evaluation (1-4): 1
  number of sound peas: 12
Pythium ultimum; 40 mg/l soil
  root evaluation (1-4): 4
  number of sound peas: 18
Pythium ultimum; 80 mg/l soil
  root evaluation (1-4): 4
  number of sound peas: 19
Tilletia caries; 20 g active agent per 100 kg
  % activity: 100%
Tilletia caries; 50 g active agent per 100 kg
  % activity: 100%

## CCCS(=O)(=O)c1nnc(C(=O)N2CCC2)s1 [5-propylsulfonyl-1,3,4-thiadiazole-2-carboxylic acid-N,N-trimethyleneamide]
Botrytis cinerea
  % activity: 87%
Fusarium avenaceum; 25 mg/l soil
  number of sound peas: 11
  root evaluation (1-4): 2
Fusarium avenaceum; 50 mg/l soil
  number of sound peas: 17
  root evaluation (1-4): 3
Fusarium avenaceum; 100 mg/l soil
  number of sound peas: 17
  root evaluation (1-4): 3
Pythium ultimum; 20 mg/l soil
  root evaluation (1-4): 1
  number of sound peas: 6
Pythium ultimum; 40 mg/l soil
  root evaluation (1-4): 4
  number of sound peas: 19
Pythium ultimum; 80 mg/l soil
  root evaluation (1-4): 4
  number of sound peas: 18
Tilletia caries; 50 g active agent per 100 kg
  % activity: 100%

## CCCS(=O)(=O)c1nnc(C(=O)N(C)C)s1 [5-propylsulfonyl-1,3,4-thiadiazole-2-carboxylic acid-dimethylamide]
Piricularia oryzae; [5]
  % activity: 93%
Helminthosporium gram; 50 g active agent per 100 kg
  % activity: 93%
Pythium ultimum; 20 mg/l soil
  root evaluation (1-4): 2
  number of sound peas: 17
Pythium ultimum; 40 mg/l soil
  root evaluation (1-4): 4
  number of sound peas: 20
Pythium ultimum; 80 mg/l soil
  root evaluation (1-4): 4
  number of sound peas: 19
Plasmopara viticola; [6]
  % activity: 75%
Plasmopara viticola; [4]
  % activity: 90%
Tilletia caries; 20 g active agent per 100 kg
  % activity: 100%
Tilletia caries; 50 g active agent per 100 kg
  % activity: 100%

## CCCS(=O)(=O)c1nnc(C(=O)NC)s1 [5-propylsulfonyl-1,3,4-thiadiazole-2-carboxylic acid-methylamide]
Botrytis cinerea
  % activity: 88%
Pythium ultimum; 20 mg/l soil
  root evaluation (1-4): 4
  number of sound peas: 19
Pythium ultimum; 40 mg/l soil
  root evaluation (1-4): 4
  number of sound peas: 16
Pythium ultimum; 80 mg/l soil
  root evaluation (1-4): 4
  number of sound peas: 15
Tilletia caries; 10 g active agent per 100 kg
  % activity: 99.5%
Tilletia caries; 20 g active agent per 100 kg
  % activity: 99.5%
Tilletia caries; 50 g active agent per 100 kg
  % activity: 100%
